Reference: publication PMC5814210, “2-Amino-3-methylcarboxy-5-heptyl-thiophene (TJ191) is a selective anti-cancer small molecule that targets low TβRIII-expressing malignant T-cell leukemia/lymphoma cells” (Oncotarget, 2017)
Like-named read-outs stand apart in the source and are kept apart here.

Assays:
PBMCs [1] = test: Proliferation assay, PBMCs; assay type: cell-based, human; conditions: PBMCs stimulated with IL-2 and phytohemagglutinin, three days, cell counting, read-out: IC50 (50% inhibition of cell growth)
Protocol: (§1) PBMCs were isolated from Buffy coats obtained from healthy blood donors (after receiving informed consent) using lymphoprep according to the manufacturer’s instructions. PBMCs were then stimulated with interleukin-2 (2 ng/ml, R&D systems, Abingdon, UK) and phytohemagglutinin (2 µg/ml, Sigma-Aldrich) for three days and used in the experiments described below. Human T-cell leukemia/lymphoma cell lines CCRF-CEM (referred to as CEM), JURKAT, MOLT-3, MOLT-4, SUP-T1, MT-2, MT-4, C8166, HSB-2, and HUT-78 were obtained from ATCC (Middlesex, UK). Cells were cultured in RPMI-1640 medium supplemented with 10% fetal bovine serum (FBS, Gibco, Erembodegem, Belgium) and 2 mM L-glutamine (Gibco).
(§2) Human T-cell leukemia/lymphoma and prostate cancer cell lines were seeded into 96-well plates at a density of 60 × 10^3 and 20 × 10^3 cells/well respectively, and treated with 5-fold dilutions of TJ191, cladribine, 6-MP, ara-C, 6-TG, adriamycine or endoxan. 200 × 10^3 PBMCs/well were seeded and treated as indicated above. After three days, cells were counted using the coulter cell counter (Analis, Belgium). The IC50 value refers to the compound concentration that causes 50% inhibition of cell growth.

[2] = test system: TβRIII KO1 and KO2 HUT-78 cells; test: Proliferation assay, TβRIII knock-out HUT-78 cells (KO1 and KO2); assay type: cell-based, human; conditions: three days, cell counting
Protocol: as §2

PBMCs [3] = test system: PBMCs; design: method as in PMID 28365318; conditions: read-out: IC50, growth of PBMCs; cited from earlier work
JURKAT cells = test: Proliferation assay, JURKAT cells; assay type: cell-based, human; conditions: three days, cell counting, read-out: IC50 (50% inhibition of cell growth)
Protocol: as §1, with “(Gibco). […] After three days, cells were counted using the coulter cell counter (Analis, Belgium). The IC50 value refers to the compound concentration that causes 50% inhibition of cell growth.” for “(Gibco).”

[4] = test system: primary human fibroblasts; design: method as in PMID 28365318; conditions: read-out: IC50, growth of primary human fibroblasts; cited from earlier work
tumor cell lines = test system: tumor cell lines; design: method as in PMID 28365318; conditions: cited from earlier work
CEM cells [5] = test: Apoptosis assay (caspase-3 activity, NucView substrate) in CEM cells; assay type: cell-based, human; conditions: 0.3 µM, 24 h
Protocol: Figure 1 Cytostatic and cytotoxic activity of TJ191 in T-cell leukemia/lymphoma cells (A) Chemical structure of TJ191. (B) Effect of TJ191 on the growth of human T-cell leukemia/lymphoma cell lines. (C) Pro-apoptotic effect of TJ191 in CEM cells. Cells were incubated with TJ191 for 8 h or 24 h and apoptosis was determined based on caspase-3 activity using the NucView […] Caspase-3 substrate, according to the manufacturer’s instruction, and fluorescence microscopy (Axiovert 200 M inverted microscope, Zeiss). Left panel, representative fluorescence microscopy images are shown; scale bars, 50 µm. Right panel, quantification of the apoptosis rate is shown. Bars represent the mean percentage of cells stained positive for caspase-3 of three different sections; bars, ± S.E.M. Data are representative of two independent experiments.
6 × 10^5 CEM cells/well were seeded into 96-well plates and treated with TJ191 in the presence of 2 µM NucView 488 caspase substrate (Biotium, Hayward, CA). When cells undergo apoptosis, the caspase substrate is cleaved by activated caspase-3/7 to release the DNA dye NucView 488, which stains the nucleus with bright green fluorescence. Cells were fixed at indicated times in 2% paraformaldehyde for 10 min at room temperature and analyzed for NucView 488 staining using a Carl Zeiss Axiovert 200 M inverted microscope (Zeiss, Göttingen, Germany).

C8166 cells = test: Proliferation assay, C8166 cells; assay type: cell-based, human; conditions: three days, cell counting, read-out: IC50 (50% inhibition of cell growth)
Protocol: as §1, with “(Gibco). […] After three days, cells were counted using the coulter cell counter (Analis, Belgium). The IC50 value refers to the compound concentration that causes 50% inhibition of cell growth.” for “(Gibco).”

MT-4 cells = test: Proliferation assay, MT-4 cells; assay type: cell-based, human; conditions: three days, cell counting, read-out: IC50 (50% inhibition of cell growth)
Protocol: as §1, with “(Gibco). […] After three days, cells were counted using the coulter cell counter (Analis, Belgium). The IC50 value refers to the compound concentration that causes 50% inhibition of cell growth.” for “(Gibco).”

HUT-78 cells = test: Proliferation assay, HUT-78 cells; assay type: cell-based, human
Protocol: as §1, with “(Gibco). […] After three days, cells were counted using the coulter cell counter (Analis, Belgium). The IC50 value refers to the compound concentration that causes 50% inhibition of cell growth.” for “(Gibco).”

HSB-2 cells = test: Proliferation assay, HSB-2 cells; assay type: cell-based, human; conditions: three days, cell counting, read-out: IC50 (50% inhibition of cell growth)
Protocol: as §1, with “(Gibco). […] After three days, cells were counted using the coulter cell counter (Analis, Belgium). The IC50 value refers to the compound concentration that causes 50% inhibition of cell growth.” for “(Gibco).”

CEM-R cells = test: Proliferation assay, TJ191-selected resistant CEM cells (CEM-R); assay type: cell-based, human; conditions: selected one month at 100-fold IC50 concentration of TJ191; three days growth
Protocol: as §2

MT-2 cells = test: Proliferation assay, MT-2 cells; assay type: cell-based, human; conditions: three days, cell counting, read-out: IC50 (50% inhibition of cell growth)
Protocol: as §1, with “(Gibco). […] After three days, cells were counted using the coulter cell counter (Analis, Belgium). The IC50 value refers to the compound concentration that causes 50% inhibition of cell growth.” for “(Gibco).”

MOLT-4 cells = test: Proliferation assay, MOLT-4 cells; assay type: cell-based, human; conditions: three days, cell counting, read-out: IC50 (50% inhibition of cell growth)
Protocol: as §1, with “(Gibco). […] After three days, cells were counted using the coulter cell counter (Analis, Belgium). The IC50 value refers to the compound concentration that causes 50% inhibition of cell growth.” for “(Gibco).”

Water solubility = assay type: physicochemical; conditions: precludes in vivo testing
SUP-T1 cells = test: Proliferation assay, SUP-T1 cells; assay type: cell-based, human; conditions: three days, cell counting, read-out: IC50 (50% inhibition of cell growth)
Protocol: as §1, with “(Gibco). […] After three days, cells were counted using the coulter cell counter (Analis, Belgium). The IC50 value refers to the compound concentration that causes 50% inhibition of cell growth.” for “(Gibco).”

CEM cells [6] = test: Proliferation assay, CEM cells; assay type: cell-based, human; conditions: three days, cell counting, read-out: IC50 (50% inhibition of cell growth)
Protocol: as §1, with “(Gibco). […] After three days, cells were counted using the coulter cell counter (Analis, Belgium). The IC50 value refers to the compound concentration that causes 50% inhibition of cell growth.” for “(Gibco).”

MOLT-3 cells = test: Proliferation assay, MOLT-3 cells; assay type: cell-based, human; conditions: three days, cell counting, read-out: IC50 (50% inhibition of cell growth)
Protocol: as §1, with “(Gibco). […] After three days, cells were counted using the coulter cell counter (Analis, Belgium). The IC50 value refers to the compound concentration that causes 50% inhibition of cell growth.” for “(Gibco).”

Molecule: Nc1nc2nc[nH]c2c(=S)[nH]1 [6-TG, 6-thioguanine]
- IC50 (PBMCs [1]; Homo sapiens, PBMC, 72 h): 570 ± 270 nM

Molecule: Nc1nc(Cl)nc2c1ncn2[C@H]1C[C@H](O)[C@@H](CO)O1 [cladribine, Cladribine]
- IC50 (PBMCs [1]; Homo sapiens, PBMC, 72 h): 180 ± 90 nM

Molecule: O=P1(N(CCCl)CCCl)NCCCO1 (stereo not drawn) [endoxan, cyclophosphamide, reference compound]
- Change of IC50 in TβRIII KO1 and KO2 cells compared with parental or scrambled control HUT-78 cells [2]: no significant difference

Molecule: COc1cccc2c1C(=O)c1c(O)c3c(c(O)c1C2=O)C[C@@](O)(C(=O)CO)C[C@@H]3O[C@H]1C[C@H](N)[C@H](O)[C@H](C)O1 [adriamycine]
- IC50 (PBMCs [1]): 79 ± 62 nM

Molecule: 2-amino-3-methylcarboxy-5-heptyl-thiophene [TJ191]
- IC50 (PBMCs [3]): > 100000 nM
- IC50 (JURKAT cells): 130 ± 80 nM
- IC50 [4]: > 100000 nM
- IC50 (tumor cell lines; drug-insensitive tumor cell lines, read-out: IC50 in drug-insensitive tumor cell lines): ~60000 nM
- IC50 (tumor cell lines; drug-sensitive tumor cell lines, read-out: IC50 in drug-sensitive tumor cell lines): ~100 nM
- Maximum apoptotic rate (cells positive for caspase-3) (CEM cells [5]): ~80%
- IC50 (C8166 cells): 3100 ± 500 nM
- IC50 (MT-4 cells): 47000 ± 5000 nM
- IC50 (HUT-78 cells; HUT-78 cells (parental), three days, cell counting, read-out: IC50 (50% inhibition of cell growth)): 17000 ± 10000 nM
- Fold less sensitive, parental HUT-78 versus CEM cells (HUT-78 cells; ratio of IC50 HUT-78 to IC50 CEM): 130 fold
- IC50 (HSB-2 cells): 260 ± 160 nM
- Reduced sensitivity of CEM-R compared with wild-type CEM (CEM-R cells): ~100 fold
- IC50 (MT-2 cells): 320 ± 86 nM
- IC50 (MOLT-4 cells): 220 ± 110 nM
- Water solubility (Water solubility): relative water insolubility
- Change of IC50 in TβRIII KO1 and KO2 cells compared with parental or scrambled control HUT-78 cells [2]: reduced at least four- to five-fold
- IC50 (SUP-T1 cells): 1500 ± 20 nM
- IC50 (CEM cells [6]): 130 ± 20 nM
- IC50 (MOLT-3 cells): 260 ± 190 nM

Molecule: Nc1ccn([C@@H]2O[C@H](CO)[C@@H](O)[C@@H]2O)c(=O)n1 [ara-C, 1-β-D-arabinofuranosyl cytosine]
- IC50 (PBMCs [1]; Homo sapiens, PBMC, 72 h): 880 ± 600 nM
